The test system of assay [1] is N9. Put plainly: Selectivity index, ratio of IC50 for human THP1 cells to IC50 for mouse N9 cells. In kind it is functional.
The subject of assay [2] is N9. Put plainly: Selectivity index, ratio of IC50 for mouse RAW264.7 cells to IC50 for mouse N9 cells. In kind it is functional.
Assay [3] concerns RAW264.7. Put plainly: Cytotoxicity against mouse RAW264.7 cells assessed as reduction in cell viability after 72 hrs by MTT colorimetric assay. Format: functional, cell-based. The following applies: RAW264.7, 72 h.
The subject of assay [4] is N9. Put plainly: Selectivity index, ratio of IC50 for human MDA-MB-468 cells to IC50 for mouse N9 cells. In kind it is functional.
Assay [5] deals with MDA-MB-468. Put plainly: Cytotoxicity against human MDA-MB-468 cells assessed as reduction in cell viability after 72 hrs by MTT colorimetric assay. The following applies: MDA-MB-468, 72 h. In kind it is functional, cell-based.
The test system of assay [6] is EL4. Put plainly: Selectivity index, ratio of IC50 for mouse EL4 cells to IC50 for mouse N9 cells. In kind it is functional.
Assay [7] relates to HepG2. Kind of assay: Selectivity index, ratio of IC50 for human HepG2 cells to IC50 for mouse S17 cells. In kind it is functional.
Assay [8] has as its system THP-1. Kind of assay: Cytotoxicity against human THP1 cells assessed as reduction in cell viability after 72 hrs by MTT colorimetric assay. In kind it is functional, cell-based. The following applies: THP-1, 72 h.
A short description of assay [9]: Selectivity index, ratio of IC50 for human MDA-MB-468 cells to IC50 for mouse S17 cells. In kind it is functional.
Assay [10] relates to THP-1. Put plainly: Selectivity index, ratio of IC50 for human THP1 cells to IC50 for mouse S17 cells. Format: functional.
Assay [11] is described as follows: Cytotoxicity against human U937 cells assessed as reduction in cell viability after 72 hrs by MTT colorimetric assay. Format: functional, cell-based. The following applies: U-937, 72 h.
The test system of assay [12] is HepG2. Put plainly: Cytotoxicity against human HepG2 cells assessed as reduction in cell viability after 72 hrs by MTT colorimetric assay. Format: functional, cell-based. The following applies: HepG2, 72 h.
Assay [13] has as its system HepG2. Kind of assay: Selectivity index, ratio of IC50 for human HepG2 cells to IC50 for mouse N9 cells. In kind it is functional.
Assay [14] relates to EL4. Put plainly: Cytotoxicity against mouse EL4 cells assessed as reduction in cell viability after 72 hrs by MTT colorimetric assay. In kind it is functional, cell-based. The following applies: EL4, 72 h.
For assay [15], the system named is N9. Put plainly: Selectivity index, ratio of IC50 for human U937 cells to IC50 for mouse N9 cells. In kind it is functional.
A short description of assay [16]: Cytotoxicity against mouse S17 cells assessed as reduction in cell viability after 72 hrs by MTT colorimetric assay. Conditions: S17, 72 h. Format: cell-based.

With `O/N=C(/c1ccc(Br)cc1)C(c1c[nH]c2ccccc12)c1c[nH]c2ccccc12`, the “Ratio IC50” value in assay [1] is reported as 14.2; in assay [2] it was 0.96; in assay [4], 1.04; in assay [6] it was 13.94; in assay [7], 0.98; in [9], 0.73. The “Ratio IC50” value in [10] is 10.04; in assay [13], 1.38; in assay [15] it was 14.02. Further, the IC50 in [3] came out at 23.9 µM; in assay [5], 22.1 µM; in assay [8], 1.62 µM; in assay [11], 1.64 µM; in assay [12], 16.6 µM; in [14] it was 1.65 µM. Also, in [16], the half-maximal inhibitory concentration (IC50) is 16.3 µM.

For the molecule `C/C(=N\O)C(c1c[nH]c2ccccc12)c1c[nH]c2ccccc12`, the IC50 in [8] is 30.7 µM; in assay [11], 42.5 µM; in assay [14], 23.9 µM; in assay [16] it was 26.1 µM. In addition, the “Ratio IC50” value in [10] stood at 0.62.

On to `C/C(=N/O)C(c1c[nH]c2ccccc12)c1c[nH]c2ccccc12`, for which the IC50 in [8] is 57.6 µM; in assay [11] it was 59.3 µM; in assay [14] it was 39 µM; in assay [16], 35.8 µM. The “Ratio IC50” value in [10] amounted to 0.6.

Regarding `COc1cc([C@@H]2c3cc4c(cc3[C@@H](O[C@@H]3O[C@@H]5CO[C@@H](C)O[C@H]5[C@H](O)[C@H]3O)[C@H]3COC(=O)[C@H]23)OCO4)cc(OC)c1O` [ETOPOSIDE], the half-inhibitory concentration (IC50) worked out at 0.82 µM in [3]; 6.69 µM in assay [5]; 1.82 µM in [8]; 1.1 µM in assay [11]; 1.4 µM in assay [12]; 4.9 µM in assay [14]. Moreover, the IC50 in assay [16] was 10.4 µM. In addition, the “Ratio IC50” value in assay [4] is 0.88; in assay [6] it was 0.8; in [7], 8.97; in assay [10], 8.55; in assay [13], 1.71.

Take `O/N=C(/c1ccc(F)cc1)C(c1c[nH]c2ccccc12)c1c[nH]c2ccccc12`: the IC50 in assay [8] amounted to 23 µM; in assay [11] it was 28 µM; in assay [14] it was 16.9 µM; in assay [16] it was 24.9 µM. Also, the “Ratio IC50” value in assay [10] is 0.89.

Consider `O/N=C(/c1ccccc1)C(c1c[nH]c2ccccc12)c1c[nH]c2ccccc12`, for which the “Ratio IC50” value in [1] was found to be 1.61; in assay [2], 2.4; in assay [4], 2.72; in assay [6] it was 2.45; in assay [7] it was 0.94; in assay [9], 2.45. Moreover, the “Ratio IC50” value in assay [13] is listed as 1.05; in [15] it was 0.86. In addition, the IC50 in assay [3] came to 12.2 µM; in assay [5], 10.7 µM; in [8], 18.1 µM; in [11], 34.1 µM; in [12], 28 µM; in [14], 11.9 µM. In addition, in assay [16], the IC50 was 26.3 µM.

Take `Cn1cc(C(/C(=N\O)c2ccc(Br)cc2)c2cn(C)c3ccccc23)c2ccccc21`: the “Ratio IC50” value amounted to 0.16 in assay [1]; 0.47 in assay [2]; 0.31 in assay [4]; 0.19 in [6]; 1.44 in assay [7]; 0.81 in assay [9]. The “Ratio IC50” value is recorded as 0.41 in assay [10], 0.56 in assay [13] and 0.2 in [15]. Moreover, the IC50 in assay [3] stood at 42.2 µM; in assay [5], 63.7 µM; in assay [8], 124 µM; in [11], 97 µM; in assay [12], 35.7 µM; in [14], 106 µM. Besides, the IC50 in assay [16] worked out at 51.4 µM.

The values are drawn from ChEMBL document CHEMBL3407451, “Novel approach to bis(indolyl)methanes: de novo synthesis of 1-hydroxyiminomethyl derivatives with anti-cancer properties” (Eur J Med Chem, 2015).
